Source: patent US7098247B2, “Arylene-carboxylic acid (2-amino-phenyl)-amide derivatives” (Hoffmann-La Roche Inc., priority 2002, dated 2006)

Tested on: histone deacetylase (HDAC)
Assay: cellular acetylation assay (acetylation of histones monitored in PC3 cells, ELISA)
Assay type: cell-based
Conditions: PC3 human prostate carcinoma cells; compound 1 uM; 24 h incubation; antibodies against acetylated histone H3 or H4
Protocol: Therein, acetylation of histones is monitored in PC3 cells. High acetylation means inhibition of histone deacetylase by compounds. Cell viability is monitored in parallel to estimate the cytotoxicity of the compounds.
PC3 cells, human prostate carcinoma cells, are seeded as 1800 cells per well of 384-well microtiterplate in RPMI 1640 (including 5% FCS, 2 mM glutamine and pen/strep). After 48 h at 37° C., pre-diluted compounds are added at a final concentration of 1 uM. Compounds are pre-diluted 1:10 in dimethyl sulfoxide (DMSO) or medium resulting in a final concentration of DMSO of 0.5%.
After 24 h, incubation the cell viability is determined by adding cell proliferation reagent WST1. Another 60 min. later, the optical density (OD) is measured (450 nm versus 690 nm).
After WST1 assay, the cell layer is prepared for the ELISA reaction. Medium is aspirated and cells are fixed in ethanol at −20° C. for 60 min. After washing with PBS/Tween, the blocking solution (PBS/ 5% FCS/Tween) is added and the cell layer is washed again. Antibodies against histone H3 or H4 (Anti-Acetylated Histone (rabbit polyclonal IgG), Upstate Biotechnologie) are added at a dilution of 1:200 for 60 min at 37° C. As a second antibody, goat anti-rabbit IgG(H+L) human IgG adsorbed-HRP conjugate (Dako) is used (1:2000 diluted). Cells are washed 3 times and the peroxidase substrate ABTS is allowed to react for 30–60 min at 37° C. Oxalic acid stops the reaction, and the OD is measured at 405 nm.
The percentage of acetylation is calculated after subtraction of blank O.D.s: […]

Structure (SMILES)	cell acetylation (PC3, 1 μM) [% of control]
CC(=O)Nc1ccc(C(=O)Nc2ccccc2N)cc1 [CI 994, reference compound]	152 % of control
Nc1ccccc1NC(=O)c1ccc(CNC(=O)C2CCCC2)s1 [Example 4-1, 5-[(Cyclopentanecarbonyl-amino)-methyl]-thiophene-2-carboxylic acid (2-amino-phenyl)-amide]	170 % of control
CCOCC(=O)NCc1ccc(C(=O)Nc2ccccc2N)s1 [Example 4-3, 5-[(2-Ethoxy-acetylamino)-methyl]-thiophene-2-carboxylic acid (2-amino-phenyl)-amide]	194 % of control
CCCC(=O)NCc1ccc(C(=O)Nc2ccccc2N)s1 [Example 4-6, 5-(Butyrylamino-methyl)-thiophene-2-carboxylic acid (2-amino-phenyl)-amide]	238 % of control
Nc1ccccc1NC(=O)c1ccc(CNC(=O)CC2C=CCC2)cc1 (stereo not drawn) [Example 4-31, N-(2-Amino-phenyl)-4-[(2-cyclopent-2-enyl-acetylamino)-methyl]-benzamide]	176 % of control
CCC(C)CNC(=O)NCc1ccc(C(=O)Nc2ccccc2N)s1 (stereo not drawn) [Example 6-8, 5-[3-(2-Methyl-butyl)-ureidomethyl]-thiophene-2-carboxylic acid (2-amino-phenyl)-amide]	198 % of control
C=CCNC(=O)NCc1ccc(C(=O)Nc2ccccc2N)s1 [Example 6-12, 5-[(3-Allyl-ureido)-methyl]-thiophene-2-carboxylic acid (2-amino-phenyl)-amide]	170 % of control
CC(C)CNC(=O)NCc1ccc(C(=O)Nc2ccccc2N)s1 [Example 6-13, 5-(3-Isobutyl-ureidomethyl)-thiophene-2-carboxylic acid (2-amino-phenyl)-amide]	178 % of control
CN(C)CC(C)(C)CNC(=O)NCc1ccc(C(=O)Nc2ccccc2N)cc1 [Example 6-19, N-(2-Amino-phenyl)-4-[3-(3-dimethylamino-2,2-dimethyl-propyl)-ureidomethyl]-benzamide]	205 % of control
CCCCCC(C)NC(=O)NCc1ccc(C(=O)Nc2ccccc2N)cc1 (stereo not drawn) [Example 6-25, N-(2-Amino-phenyl)-4-[3-(1-methyl-hexyl)-ureidomethyl]-benzamide]	192 % of control
CCOCCCNC(=O)NCc1ccc(C(=O)Nc2ccccc2N)cc1 [Example 6-26, N-(2-Amino-phenyl)-4-[3-(3-ethoxy-propyl)-ureidomethyl]-benzamide]	179 % of control
C=CCNC(=O)NCc1ccc(C(=O)Nc2ccccc2N)cc1 [Example 6-27, 4-[(3-Allyl-ureido)-methyl]-N-(2-amino-phenyl)-benzamide]	175 % of control
CC(C)OCCCNC(=O)NCc1ccc(C(=O)Nc2ccccc2N)cc1 [Example 6-28, N-(2-Amino-phenyl)-4-[3-(3-isopropoxy-propyl)-ureidomethyl]-benzamide]	177 % of control
Nc1ccccc1NC(=O)c1ccc(CNC(=O)NCC2CC2)cc1 [Example 6-29, N-(2-Amino-phenyl)-4-(3-cyclopropylmethyl-ureidomethyl)-benzamide]	187 % of control
CCCCCNC(=O)NCc1ccc(C(=O)Nc2ccccc2N)cn1 [Example 6-38, N-(2-Amino-phenyl)-6-[(3-pentyl-ureido)-methyl]-nicotinamide]	178 % of control
